Experimental data: patent US7629150B2, “Transformed cell harboring DNA or RNA encoding sugar chain synthesizing agent having β1,3-N-acetylglucosaminyltransferase activity” (Kyowa Hakko Kirin Co., Ltd., priority 2000, dated 2009)

Target: T1, G6sec2 (Homo sapiens, UniProt Q9BYG0)
T1 construct: made in house; host or cells: Sf21 insect cells infected with pVL1393-F2G6sec2-derived recombinant baculovirus
T1 sequence (Q9BYG0 39-378): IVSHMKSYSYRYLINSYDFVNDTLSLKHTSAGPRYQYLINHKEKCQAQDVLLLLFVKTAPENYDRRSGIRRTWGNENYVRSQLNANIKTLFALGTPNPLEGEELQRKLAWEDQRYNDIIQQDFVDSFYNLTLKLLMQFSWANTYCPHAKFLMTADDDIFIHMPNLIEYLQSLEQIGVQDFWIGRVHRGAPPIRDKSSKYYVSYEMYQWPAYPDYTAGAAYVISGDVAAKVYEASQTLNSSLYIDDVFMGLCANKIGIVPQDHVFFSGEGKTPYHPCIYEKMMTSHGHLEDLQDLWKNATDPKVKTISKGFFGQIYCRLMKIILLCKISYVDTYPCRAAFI
Test: β1,3-N-acetylglucosaminyltransferase activity of purified FLAG peptide-fused G6 polypeptide, 2-aminobenzamide-labeled oligosaccharide substrates
Format: biochemical
Details: for Relative activity (%) Test 1 G6sec2 / Relative activity (%) Test 2 G6sec2: 2-aminobenzamide-labeled oligosaccharides, LNnT defined as 100%; for Relative activity (%) Test 2 G6sec2: enzyme prepared again
Protocol: β1,3-N-Acetylglucosaminyltransferase activity of the FLAG peptide-fused G6 polypeptide secreted and produced in insect cells was measured by using the eluate prepared in Example 8(6). The method of Example 7 was used for the activity measurement.
As substrates, oligosaccharides [LNnT, Galβ1-4GlcNAcβ1-3Galβ1-4GlcNAc (hereinafter referred to as “2LN”), Galβ1-4GlcNAcβ1-3Galβ1-4GlcNAcβ1-3Galβ1-4GlcNAc (hereinafter referred to as “3LN”), Galβ1-4GlcNAcβ1-3Galβ1-4GlcNAcβ1-3Galβ1-4GlcNAcβ1-3Galβ1-4GlcNAc (hereinafter referred to as “4LN”), Galβ1-4GlcNAcβ1-3Galβ1-4GlcNAcβ-3Galβ1-4GlcNAcβ1-3Galβ1-4GlcNAcβ1-3Galβ1-4GlcNAc (hereinafter referred to as “5LN”), or Galβ1-4(SO3-6)GlcNAcβ1-3Galβ1-4(SO3-6)GlcNAc (hereinafter referred to as “L2L2”)] were labeled with 2-aminobenzamide and used. 2-Aminobenzamide-labeling of oligosaccharides was carried out using SIGMA 2AB glycan labeling kit (manufactured by Oxford Glycoscience) according to the manufacture's instructions of the kit. LNnT was purchased from Oxford Glycosystems. Other oligosaccharides were obtained from Seikagaku Corporation.
Specifically, the reaction was carried out at 37° C. for 16 hours in 20 μl of an assay solution [150 mmol/l sodium cacodylate (pH 7.2), 50 mmol/l UDP-GlcNAc (manufactured by SIGMA), 0.4% Triton CF-54, 10 mmol/l MnCl2, 5 μmol/12-aminobenzamide-labeled sugar chain substrate, the above purified enzyme solution], and then the product was detected by high performance liquid chromatography (HPLC, details will be described below). As the enzyme, an eluate (1.5 μl) prepared from a culture supernatant of Sf21 infected with the recombinant virus derived from pVL1393-F2G6sec1 or an eluate (1.4 μl) prepared from a culture supernatant of Sf21 infected with the recombinant virus derived from pVL1393-F2G6sec2, prepared in Example 8(6), was used.
The assay solution after completion of the reaction was treated at 100° C. for 5 minutes and then mixed with 50 μl of pure water for HPLC and centrifuged at 10,000×g for 5 minutes to obtain the supernatant. To a tube containing the assay solution, 50 μl of pure water for HPLC was added again, the tube was washed, and suparnatant was obtained by centrifugation at 10,000×g for 5 minutes and was combined with the first supernatant. Next, the supernatant was passed through Ultrafree-MC column (manufactured by Millipore) and a portion thereof (10 μl) was subjected to HPLC. The Ultrafree-MC column was used according to the method described in the manufacture's instructions attached thereto.
The HPLC was carried out using TSK-gel ODS-80Ts Column (4.6×300 mm; manufactured by TOSOH) as a column and 0.02 mol/l ammonium acetate buffer containing 7% methanol (pH 4.0) as an eluant at an elution temperature of 50° C. and a flow rate of 1 ml/min.
The product was detected using a fluorescence spectrophotometer FP-920 (manufactured by JASCO Corporation) (excitation wavelength: 330 nm, radiation wavelength: 420 nm).
Also, a purified enzyme (G6sec2) was again prepared using the method shown in Example 8(6), its substrate specificity was again examined, and the results are also shown in Table 1 (Test 2 in Table 1). The purified enzyme (280 μl) was prepared from 30 ml of a culture supernatant of Sf21 infected with the recombinant virus derived from pVL1393-F2G6sec2, and the assay was carried out using a 4 μl portion thereof. Relative activities when the activity measured using 2-aminobenzamide-labeled LNnT as the substrate is defined as 100% are shown in the table.

Row | SMILES | Relative activity (%) Test 1 G6sec2 [%] | Relative activity (%) Test 2 G6sec2 [%] | conversion efficiency of the substrate into the product (G6sec2 eluate 1.4 μl, 2-aminobenzamide-labeled substrate, 37° C., 16 hours (Test 1)) [%] | conversion efficiency into the product (G6sec2 prepared again, 4 μl, 2-aminobenzamide-labeled substrate (Test 2)) [%]
1 | CC(=O)N[C@H]1[C@H](O[C@H]2[C@@H](O)[C@@H](CO)O[C@@H](O[C@H]3[C@H](O)[C@@H](O)C(O)O[C@@H]3CO)[C@@H]2O)O[C@H](CO)[C@@H](O[C@@H]2O[C@H](CO)[C@H](O)[C@H](O)[C@H]2O)[C@@H]1O (mixture of isomers) [LNnT, lacto-N-neotetraose] | 100 | 100 | 11.2 | 26.2
2 | CC(=O)N[C@H]1[C@H](O[C@H]2[C@@H](O)[C@@H](CO)O[C@@H](O[C@H]3[C@H](O)[C@@H](NC(C)=O)C(O)O[C@@H]3CO)[C@@H]2O)O[C@H](CO)[C@@H](O[C@@H]2O[C@H](CO)[C@H](O)[C@H](O)[C@H]2O)[C@@H]1O (stereo partly drawn) [2LN, Galβ1-4GlcNAcβ1-3Galβ1-4GlcNAc] | 86.8 | 65.3 | – | –
